Like-named read-outs stand apart in the source and are kept apart here.
How the values were obtained:
BT-549 = test: NCI one-dose SRB assay (Breast Cancer); format: cell-based, human; conditions: for Growth Percent: BT-549, 1.00E-5 Molar; for inhibition at 10 µM: Homo sapiens, BT-549, 10 μM, read-out: Percentage growth inhibition (GI%)
Method: (§1) The structures of all the newly prepared pyridine-ureas 8a–n were submitted to the National Cancer Institute (NCI) Developmental Therapeutic Program. Eight compounds 8b, 8d, 8e, 8i, 8j and 8l–n were selected to be examined for their in vitro growth inhibitory activity. The anticancer assays were carried out according to the protocol of the Drug Evaluation Branch, NCI, Bethesda. The selected pyridine-ureas were tested at one dose primary anticancer assay against a panel of approximately 58 cancer lines (concentration 10^−5 M). The tested human cancer cell lines emerged from nine different cancer subtypes: leukemia, colon, melanoma, ovarian, lung, CNS, renal, breast and prostate cancers. The sulforhodamine B (SRB) protein assay was adopted to estimate the cell viability and growth. The results were reported as mean-graph of the percentage growth of the treated cells, and presented as percentage growth inhibition (GI%) caused by the test compounds (Table 2).
(§2) The anticancer assays were performed in accordance with the protocol of the Drug Evaluation Branch, NCI, Bethesda. A 48 h drug exposure protocol was used and sulforhodamine B (SRB) protein assay was applied to estimate the cell viability and growth, as reported earlier.

MCF7 = test: NCI one-dose SRB assay (Breast Cancer); format: cell-based, human; conditions: for inhibition at 10 µM: Homo sapiens, MCF7, 10 μM, read-out: Percentage growth inhibition (GI%); for Growth Percent: MCF7, 1.00E-5 Molar
Method: as §1, §2

T-47D = test: NCI one-dose SRB assay (Breast Cancer); format: cell-based, human; conditions: for Growth Percent: 1.00E-5 Molar; for inhibition at 10 µM: Homo sapiens, T47D, read-out: Percentage growth inhibition (GI%)
Method: as §1, §2

MDA-MB-231 = test: NCI one-dose SRB assay (Breast Cancer); format: cell-based, human; conditions: for inhibition at 10 µM: Homo sapiens, MDA-MB-231, 10 μM, read-out: Percentage growth inhibition (GI%); for Growth Percent: MDA-MB-231/ATCC, 1.00E-5 Molar
Method: as §1, §2

HS 578T = test: NCI one-dose SRB assay (Breast Cancer); format: cell-based, human; conditions: for Growth Percent: 1.00E-5 Molar; for inhibition at 10 µM: Homo sapiens, read-out: Percentage growth inhibition (GI%)
Method: as §1, §2

MDA-MB-468 = test: NCI one-dose SRB assay (Breast Cancer); format: cell-based, human; conditions: for inhibition at 10 µM: Homo sapiens, MDA-MB-468, 10 μM, read-out: Percentage growth inhibition (GI%); for Growth Percent: MDA-MB-468, 1.00E-5 Molar
Method: as §1, §2

KM12 = test: NCI one-dose SRB assay (Colon Cancer); format: cell-based, human; conditions: for inhibition at 10 µM: Homo sapiens, KM12, 10 μM, read-out: Percentage growth inhibition (GI%); for Growth Percent: KM12, 1.00E-5 Molar
Method: as §1, §2

HCC-2998 = test: NCI one-dose SRB assay (Colon Cancer); format: cell-based, human; conditions: for Growth Percent: HCC-2998, 1.00E-5 Molar; for inhibition at 10 µM: Homo sapiens, HCC-2998, 10 μM, read-out: Percentage growth inhibition (GI%)
Method: as §1, §2

COLO 205 = test: NCI one-dose SRB assay (Colon Cancer); format: cell-based, human; conditions: for Growth Percent: COLO 205, 1.00E-5 Molar; for inhibition at 10 µM: Homo sapiens, COLO 205, 10 μM, read-out: Percentage growth inhibition (GI%)
Method: as §1, §2

HT29 = test: NCI one-dose SRB assay (Colon Cancer); format: cell-based, human; conditions: for Growth Percent: HT29, 1.00E-5 Molar; for inhibition at 10 µM: Homo sapiens, HT-29, HT29, 10 μM, read-out: Percentage growth inhibition (GI%)
Method: as §1, §2

HCT-116 = test: NCI one-dose SRB assay (Colon Cancer); format: cell-based, human; conditions: for Growth Percent: HCT-116, 1.00E-5 Molar; for inhibition at 10 µM: Homo sapiens, HCT-116, 10 μM, read-out: Percentage growth inhibition (GI%)
Method: as §1, §2

SW-620 = test: NCI one-dose SRB assay (Colon Cancer); format: cell-based, human; conditions: for inhibition at 10 µM: Homo sapiens, SW-620, 10 μM, read-out: Percentage growth inhibition (GI%); for Growth Percent: SW-620, 1.00E-5 Molar
Method: as §1, §2

HCT-15 = test: NCI one-dose SRB assay (Colon Cancer); format: cell-based, human; conditions: for Growth Percent: HCT-15, 1.00E-5 Molar; for inhibition at 10 µM: Homo sapiens, HCT-15, 10 μM, read-out: Percentage growth inhibition (GI%)
Method: as §1, §2

UACC-62 = test: NCI one-dose SRB assay (Melanoma); format: cell-based, human; conditions: for inhibition at 10 µM: Homo sapiens, UACC-62, 10 μM, read-out: Percentage growth inhibition (GI%); for Growth Percent: UACC-62, 1.00E-5 Molar
Method: as §1, §2

UACC-257 = test: NCI one-dose SRB assay (Melanoma); format: cell-based, human; conditions: for inhibition at 10 µM: Homo sapiens, UACC-257, 10 μM, read-out: Percentage growth inhibition (GI%); for Growth Percent: UACC-257, 1.00E-5 Molar
Method: as §1, §2

SK-MEL-28 = test: NCI one-dose SRB assay (Melanoma); format: cell-based, human; conditions: for inhibition at 10 µM: Homo sapiens, SK-MEL-28, 10 μM, read-out: Percentage growth inhibition (GI%); for Growth Percent: SK-MEL-28, 1.00E-5 Molar
Method: as §1, §2

LOX IMVI = test: NCI one-dose SRB assay (Melanoma); format: cell-based, human; conditions: for Growth Percent: 1.00E-5 Molar; for inhibition at 10 µM: Homo sapiens, read-out: Percentage growth inhibition (GI%)
Method: as §1, §2

SK-MEL-2 = test: NCI one-dose SRB assay (Melanoma); format: cell-based, human; conditions: for inhibition at 10 µM: Homo sapiens, SK-MEL-2, 10 μM, read-out: Percentage growth inhibition (GI%); for Growth Percent: SK-MEL-2, 1.00E-5 Molar
Method: as §1, §2

MDA-MB-435 = test: NCI one-dose SRB assay (Melanoma); format: cell-based, human; conditions: for inhibition at 10 µM: Homo sapiens, MDA-MB-435, 10 μM, read-out: Percentage growth inhibition (GI%); for Growth Percent: MDA-MB-435, 1.00E-5 Molar
Method: as §1, §2

M14 = test: NCI one-dose SRB assay (Melanoma); format: cell-based, human; conditions: for inhibition at 10 µM: Homo sapiens, M14, 10 μM, read-out: Percentage growth inhibition (GI%); for Growth Percent: M14, 1.00E-5 Molar
Method: as §1, §2

MALME-3M = test: NCI one-dose SRB assay (Melanoma); format: cell-based, human; conditions: for Growth Percent: 1.00E-5 Molar; for inhibition at 10 µM: Homo sapiens, read-out: Percentage growth inhibition (GI%)
Method: as §1, §2

SK-MEL-5 = test: NCI one-dose SRB assay (Melanoma); format: cell-based, human; conditions: for inhibition at 10 µM: Homo sapiens, SK-MEL-5, 10 μM, read-out: Percentage growth inhibition (GI%); for Growth Percent: SK-MEL-5, 1.00E-5 Molar
Method: as §1, §2

[1] = test system: breast cancer MCF-7 cell line; test: In vitro anti-proliferative activity, MTT assay; format: cell-based, human; conditions: Homo sapiens, MCF-7, MTT
Method: The in vitro anti-proliferative activity of the newly prepared pyridine-ureas 8a–n was examined against breast cancer MCF-7 cell line. The assay was carried out, as triplicates, utilizing the 3-(4,5-dimethylthiazol-2-yl)-2,5-diphenyltetrazolium bromide (MTT) colorimetric assay as described by T. Mosmann. Doxorubicin and Sorafenib were included in this assay as a reference drug.
MCF-7 (human breast cancer cell line) and WI-38 (human lung fibroblast cell line), were obtained from American Type Culture Collection (Manassas, VA, USA). The cells were propagated in DMEM and supplemented with 10% heat-inactivated FBS (Hyclone), 10 μg/mL of insulin (Manufacturer, Sigma, St. Louis, MO, USA), and 1% penicillin-streptomycin. MTT assay was utilized to examine the in vitro anti-proliferative activity of the newly prepared ureas following the reported procedures. […] The data presented are the mean of at least three separate experiments.

[2] = MCF7, 48 h, 48 h of incubation, read-out: IC50 48 h
[3] = MCF7, 72 h, 72 h of incubation, read-out: IC50 72 h

**Q.** Which results are given for `COc1ccc(-c2ccc(NC(=O)Nc3ccc(Cl)c(C(F)(F)F)c3)c(C)n2)cc1` [Compound 8e, 1-(4-Chloro-3-(trifluoromethyl)phenyl)-3-(6-(4-methoxyphenyl)-2-methylpyridin-3-yl)urea]?
**A.** Growth Percent (BT-549): 66.19%; inhibition at 10 µM (BT-549): 34%; inhibition at 10 µM (MCF7): 64%; Growth Percent (MCF7): 36.68%; Growth Percent (T-47D): 21.49%; inhibition at 10 µM (T-47D): 79%; inhibition at 10 µM (MDA-MB-231): 15%; Growth Percent (MDA-MB-231): 85.04%; Growth Percent (HS 578T): 76.98%; inhibition at 10 µM (HS 578T): 24%; inhibition at 10 µM (MDA-MB-468): 62%; Growth Percent (MDA-MB-468): 38.52%; inhibition at 10 µM (KM12): 63%; Growth Percent (KM12): 37.36%; Growth Percent (HCC-2998): 69.17%; inhibition at 10 µM (HCC-2998): 31%; Growth Percent (COLO 205): 80.09%; inhibition at 10 µM (COLO 205): 20%; Growth Percent (HT29): 46.44%; inhibition at 10 µM (HT29): 54%; Growth Percent (HCT-116): 23.73%; inhibition at 10 µM (HCT-116): 77%; inhibition at 10 µM (SW-620): 33%; Growth Percent (SW-620): 67.04%; Growth Percent (HCT-15): 37.80%; inhibition at 10 µM (HCT-15): 63%; inhibition at 10 µM (UACC-62): 35%; Growth Percent (UACC-62): 65.57%; inhibition at 10 µM (UACC-257): 43%; Growth Percent (UACC-257): 57.07%; inhibition at 10 µM (SK-MEL-28): 29%; Growth Percent (SK-MEL-28): 71.43%; Growth Percent (LOX IMVI): 64.51%; inhibition at 10 µM (LOX IMVI): 36%; inhibition at 10 µM (SK-MEL-2): 38%; Growth Percent (SK-MEL-2): 62.13%; inhibition at 10 µM (MDA-MB-435): 29%; Growth Percent (MDA-MB-435): 71.95%; inhibition at 10 µM (M14): 69%; Growth Percent (M14): 31.87%; Growth Percent (MALME-3M): 82.56%; inhibition at 10 µM (MALME-3M): 18%; inhibition at 10 µM (SK-MEL-5): 45%; Growth Percent (SK-MEL-5): 55.66%; IC50 [1, 2]: 0.22 ± 0.02 µM; IC50 [1, 3]: 0.11 ± 0.1 µM; melting point: 195 to 197 °C

**Q.** What does the source list for `COc1ccc(-c2ccc(NC(=O)Nc3cccc(C(F)(F)F)c3)c(C)n2)cc1OC` [Compound 8i, 1-(6-(3,4-Dimethoxyphenyl)-2-methylpyridin-3-yl)-3-(3-(trifluoromethyl)phenyl) Urea]?
**A.** Growth Percent (BT-549): 71.52%; inhibition at 10 µM (BT-549): 29%; inhibition at 10 µM (MCF7): 38%; Growth Percent (MCF7): 62.46%; Growth Percent (T-47D): 53.57%; inhibition at 10 µM (T-47D): 47%; inhibition at 10 µM (MDA-MB-231): 31%; Growth Percent (MDA-MB-231): 69.50%; Growth Percent (HS 578T): 74.54%; inhibition at 10 µM (HS 578T): 26%; inhibition at 10 µM (MDA-MB-468): 51%; Growth Percent (MDA-MB-468): 49.56%; inhibition at 10 µM (KM12): 34%; Growth Percent (KM12): 66.00%; Growth Percent (HCC-2998): 84.39%; inhibition at 10 µM (HCC-2998): 16%; Growth Percent (COLO 205): 88.09%; inhibition at 10 µM (COLO 205): 12%; Growth Percent (HT29): 59.96%; inhibition at 10 µM (HT29): 41%; Growth Percent (HCT-116): 17.63%; inhibition at 10 µM (HCT-116): 83%; inhibition at 10 µM (SW-620): < 10%; Growth Percent (SW-620): 91.19%; Growth Percent (HCT-15): 48.77%; inhibition at 10 µM (HCT-15): 52%; inhibition at 10 µM (UACC-62): 19%; Growth Percent (UACC-62): 81.66%; inhibition at 10 µM (UACC-257): 19%; Growth Percent (UACC-257): 81.62%; inhibition at 10 µM (SK-MEL-28): 25%; Growth Percent (SK-MEL-28): 75.52%; Growth Percent (LOX IMVI): 70.96%; inhibition at 10 µM (LOX IMVI): 30%; inhibition at 10 µM (SK-MEL-2): 27%; Growth Percent (SK-MEL-2): 73.78%; inhibition at 10 µM (MDA-MB-435): 27%; Growth Percent (MDA-MB-435): 73.17%; inhibition at 10 µM (M14): 69%; Growth Percent (M14): 31.21%; Growth Percent (MALME-3M): 95.26%; inhibition at 10 µM (MALME-3M): < 10%; inhibition at 10 µM (SK-MEL-5): 42%; Growth Percent (SK-MEL-5): 58.49%; IC50 [1, 2]: 6.19 ± 0.54 µM; IC50 [1, 3]: 5.8 ± 0.34 µM; melting point: 235 to 237 °C

— PMC6100082, “Pyridine-Ureas as Potential Anticancer Agents: Synthesis and In Vitro Biological Evaluation” (Molecules : A Journal of Synthetic Chemistry and Natural …, 2018)
